# Results taken from PMC5650142, “GPR40 partial agonists and AgoPAMs: Differentiating effects on glucose and hormonal secretions in the rodent” (PLoS ONE, 2017).
# Several values for one entry are separate records, joined by “and”; a condition that tells them apart may be missing. Equal values may be shown once.
# Assays:
# [1] = system: pancreatic islets from wild type and GPR40−/− mice; assay: Isolated pancreatic islets static GDIS assay (insulin, glucagon secretion); type: cell-based, mouse; set-up: Islet insulin / Islet insulin, mean: unit not given here; conditions: for glucagon secretion from islets: ex vivo; for Islet Glucagon / Islet insulin: individual replicates; for Islet Glucagon, mean / Islet insulin, mean: mean of replicates
# Experimental: Pancreatic islets of Langerhans were isolated from wild type and GPR40^−/− mice (littermates) by collagenase digestion and discontinuous Ficoll gradient separation. […] Insulin secretion was determined by a 1-h static incubation in Krebs-Ringer bicarbonate (KRB) buffer in a 96-well format as previously described. […] The buffer was removed from the wells at the end of the incubation and assayed for insulin levels using the Insulin ELISA kit (ALPCO, Salem, NH) and glucagon level using glucagon ELISA kit (ALPCO, Salem, NH).
# GK rats = assay: GK rat acute efficacy (glucose, insulin, glucagon after single dose); type: in vivo; conditions: for Plasma Glucagon Over Time (Fig 2C) / Plasma Insulin Over Time (Fig 2B): 30 mpk
# Experimental: Ambient blood glucose was measured via tail snip with a glucometer (OneTouch Ultra, Lifescan Inc., Milpitas, CA). Body weights were then measured, and food was removed approximately 1 hr post lights on. Animals were sorted into treatment groups based on ambient glucose. At approximately 10 AM, glucose was measured and blood for insulin, glucagon, and drug exposure was collected. […] Each compound tested was dosed at its maximal effective dose determined through a series of dose titrations using this experimental paradigm (data not shown). Effects of treatment on glucose, insulin, and glucagon were measured at 1, 2, 4, and 24 hrs post dose. After the 4 hr blood collection, food was returned overnight and removed the next day at 1 hr post lights on.
# Blood for insulin, glucagon, GLP-1, GIP, and PYY measurements was collected into K2EDTA Microtainer tubes (BD, Franklin Lakes, NJ) pre-treated with DPP4 inhibitor (Millipore, Billerica, MA) and cOmplete™ Protease Inhibitor Cocktail Tablets (Roche Diagnostics, Indianapolis, IN). Tubes were centrifuged for 10 minutes at 5000 RPM, and plasma was aliquotted for analysis. Plasma insulin levels were measured via EIA (Mesoscale Discovery ELISA Kit, Gaithersburg MD). Rat plasma total GLP-1 was measured using Total GLP-1 (ver.2) Assay Kit (Cat#: K150JVC). The measurement of active GLP-1 was carried out in a similar manner as that described for total GLP-1 assay with the exception that MSD Active GLP-1 (ver. 2) assay kit (Cat# K150JWC) was used. Rat plasma glucagon was measured using an in-house glucagon assay developed as a MSD format sandwich immunoassay (Merck & Co., Inc., MRL, Kenilworth, NJ USA). The antibody specificity was cross validated via mass- spec using procedures described in Lee et al. Briefly, MSD Streptavidin Gold plates were coated with 2 μg/ml biotin mouse monoclonal antibody generated to glucagon. Test samples were added to the plates and a separate Sulfo- tagged monoclonal antibody was used to detect the captured glucagon protein (2 μg/ml). The ELISA was carried out in the standard reagents in the MSD format. The plate was read on the SECTOR Imager 6000 Reader. Metabolic hormones GIP (Gastric Inhibitory Polypeptide) and PYY (Peptide YY) were measured in rat plasma using the Rat Metabolic Magnetic Bead Panel (EMD Millipore, Billerica, MA). The assay was performed according to manufacturer protocol.
smiles,measurement,setting,value
COc1ccc(F)c(-c2ccc([C@@H]3CCc4ccc([C@H](C5CC5)[C@H](C)C(=O)O)cc4O3)cc2)c1 [AP1],glucagon secretion from islets,[1]; GPR40-/- mouse islets,abolished
same,Islet Glucagon,"[1]; KO mouse islets, G2, 1uM",8.295 pg/ml/ islet and 16.584 pg/ml/ islet and 5.331 pg/ml/ islet and 9.664 pg/ml/ islet and 1.86 pg/ml/ islet and 24.388 pg/ml/ islet and 22.826 pg/ml/ islet and 23.18 pg/ml/ islet and 16.858 pg/ml/ islet and 27.237 pg/ml/ islet
same,Islet insulin,"[1]; KO mouse islets, G2, 1uM",0.224 and 0.186 and 0.933 and 0.721 and 1.124 and 0.514 and 0.261 and 0.152 and 0.181 and 0.215
same,"Islet Glucagon, mean","[1]; KO mouse islets, G2, 1uM",15.6223 pg/ml/ islet
same,"Islet insulin, mean","[1]; KO mouse islets, G2, 1uM",0.4511
same,Islet Glucagon,"[1]; KO mouse islets, G16, 1uM",5.183 pg/ml/ islet and 12.803 pg/ml/ islet and 9.635 pg/ml/ islet and 3.883 pg/ml/ islet and 11.858 pg/ml/ islet and 6.688 pg/ml/ islet and 0.121 pg/ml/ islet and 5.519 pg/ml/ islet and 6.26 pg/ml/ islet and 3.878 pg/ml/ islet
same,Islet insulin,"[1]; KO mouse islets, G16, 1uM",2.959 and 3.403 and 3.966 and 2.272 and 3.839 and 3.783 and 2.961 and 3.664 and 2.593 and 1.94
same,"Islet Glucagon, mean","[1]; KO mouse islets, G16, 1uM",6.5828 pg/ml/ islet
same,"Islet insulin, mean","[1]; KO mouse islets, G16, 1uM",3.138
same,Islet Glucagon,"[1]; WT mouse islets, G2, 1uM",55.828 pg/ml/ islet and 87.628 pg/ml/ islet and 54.498 pg/ml/ islet and 21.019 pg/ml/ islet and 35.248 pg/ml/ islet and 60.615 pg/ml/ islet and 73.937 pg/ml/ islet and 63.3 pg/ml/ islet and 50.656 pg/ml/ islet and 33.503 pg/ml/ islet
same,Islet insulin,"[1]; WT mouse islets, G2, 1uM, listed as L-005306254",0.53 and 1.151 and 0.66 and 1.39 and 2.61 and 1.55 and 1.058 and 0.71 and 0.4565 and 0.7725
same,"Islet Glucagon, mean","[1]; WT mouse islets, G2, 1uM",53.6232 pg/ml/ islet
same,"Islet insulin, mean","[1]; WT mouse islets, G2, 1uM",1.0888
same,Islet Glucagon,"[1]; WT mouse islets, G16, 1uM",29.473 pg/ml/ islet and 34.729 pg/ml/ islet and 57.354 pg/ml/ islet and 33.737 pg/ml/ islet and 7.252 pg/ml/ islet and 14.915 pg/ml/ islet and 23.157 pg/ml/ islet and 23.385 pg/ml/ islet and 38.776 pg/ml/ islet
same,Islet insulin,"[1]; WT mouse islets, G16, 1uM, listed as L-005306254",12.607 and 12.478 and 13.17 and 12.065 and 9.432 and 10.077 and 12.044 and 12.3 and 10.845 and 11.903
same,"Islet Glucagon, mean","[1]; WT mouse islets, G16, 1uM",29.1976 pg/ml/ islet
same,"Islet insulin, mean","[1]; WT mouse islets, G16, 1uM",11.6921
same,glucagon secretion from islets,[1]; WT mouse islets,significantly elevated
same,Plasma Glucagon Over Time (Fig 2C),"GK rats; time 0, individual animals",55.7691 pg/mL and 68.321 pg/mL and 77.904 pg/mL and 111.395 pg/mL and 52.9088 pg/mL and 48.0782 pg/mL and 166.643 pg/mL and 75.2113 pg/mL
same,Plasma Insulin Over Time (Fig 2B),"GK rats; time 0, individual animals",1.368 ng/mL and 2.115 ng/mL and 2.541 ng/mL and 1.628 ng/mL and 3.5154 ng/mL and 1.38 ng/mL and 1.662 ng/mL and 2.024 ng/mL
same,Plasma Glucagon Over Time (Fig 2C),"GK rats; time 1, individual animals",68.4222 pg/mL and 203.855 pg/mL and 443.444 pg/mL and 510.501 pg/mL and 371.284 pg/mL and 243.688 pg/mL and 323.455 pg/mL and 532.086 pg/mL
same,Plasma Insulin Over Time (Fig 2B),"GK rats; time 1, individual animals",2.471 ng/mL and 8.448 ng/mL and 6.286 ng/mL and 2.7997 ng/mL and 8.046 ng/mL and 6.547 ng/mL and 6.926 ng/mL and 4.435 ng/mL
same,Plasma Glucagon Over Time (Fig 2C),"GK rats; time 2, individual animals",677.742 pg/mL and 147.407 pg/mL and 198.886 pg/mL and 95.5346 pg/mL and 199.272 pg/mL and 184.367 pg/mL and 336.315 pg/mL and 387.077 pg/mL
same,Plasma Insulin Over Time (Fig 2B),"GK rats; time 2, individual animals",2.6557 ng/mL and 2.936 ng/mL and 3.027 ng/mL and 0.7256 ng/mL and 3.203 ng/mL and 2.271 ng/mL and 3.072 ng/mL and 2.0183 ng/mL
same,Plasma Glucagon Over Time (Fig 2C),"GK rats; time 4, individual animals",426.615 pg/mL and 76.1995 pg/mL and 36.6178 pg/mL and 86.9884 pg/mL and 83.1703 pg/mL and 202.015 pg/mL and 219.163 pg/mL and 202.907 pg/mL
same,Plasma Insulin Over Time (Fig 2B),"GK rats; time 4, individual animals",2.117 ng/mL and 1.616 ng/mL and 1.477 ng/mL and 1.139 ng/mL and 1.988 ng/mL and 2.587 ng/mL and 2.052 ng/mL
same,Plasma Glucagon Over Time (Fig 2C),"GK rats; time 24, individual animals",168.326 pg/mL and 107.348 pg/mL and 18.8494 pg/mL and 200.464 pg/mL and 140.291 pg/mL and 122.096 pg/mL and 264.039 pg/mL and 261.868 pg/mL
same,Plasma Insulin Over Time (Fig 2B),"GK rats; time 24, individual animals",1.016 ng/mL and 0.9428 ng/mL and 0.1505 ng/mL and 1.222 ng/mL and 1.548 ng/mL and 1.3655 ng/mL and 1.314 ng/mL and 1.563 ng/mL
Cc1cc(OCCCS(C)(=O)=O)cc(C)c1-c1cccc(COc2cc3c(cn2)[C@H]2[C@@H](C3)[C@@H]2C(=O)O)c1 [MK-8666],Islet Glucagon,"[1]; KO mouse islets, G2, 10 uM",18.0653 pg/ml/ islet and 18.1157 pg/ml/ islet and 9.579 pg/ml/ islet and 14.1337 pg/ml/ islet and 15.8166 pg/ml/ islet and 22.7674 pg/ml/ islet
same,Islet insulin,"[1]; KO mouse islets, G2, 10 uM",0.7614 and 0.3958 and 0.3055 and 0.5799 and 0.6404 and 0.3029
same,"Islet Glucagon, mean","[1]; KO mouse islets, G2, 10 uM",16.4129 pg/ml/ islet
same,"Islet insulin, mean","[1]; KO mouse islets, G2, 10 uM",0.4977
same,Islet Glucagon,"[1]; KO mouse islets, G16, 10 uM",11.8893 pg/ml/ islet and 4.442 pg/ml/ islet and 4.11 pg/ml/ islet and 16.6705 pg/ml/ islet and 9.138 pg/ml/ islet and 11.4903 pg/ml/ islet and 5.5193 pg/ml/ islet and 2.29 pg/ml/ islet and 10.7282 pg/ml/ islet and 2.062 pg/ml/ islet
same,Islet insulin,"[1]; KO mouse islets, G16, 10 uM",1.241 and 2.484 and 3.15 and 0.9538 and 3.706 and 3.098 and 3.161 and 1.875 and 3.378 and 6.11
same,"Islet Glucagon, mean","[1]; KO mouse islets, G16, 10 uM",7.834 pg/ml/ islet
same,"Islet insulin, mean","[1]; KO mouse islets, G16, 10 uM",2.9156
same,Islet Glucagon,"[1]; WT mouse islets, G2, 10 uM",19.4342 pg/ml/ islet and 13.1173 pg/ml/ islet and 22.868 pg/ml/ islet and 18.9373 pg/ml/ islet and 12.9706 pg/ml/ islet and 18.154 pg/ml/ islet
same,"Islet Glucagon, mean","[1]; WT mouse islets, G2, 10 uM",17.5802 pg/ml/ islet
same,"Islet insulin, mean","[1]; WT mouse islets, G2, 10 uM",0.394
same,Islet Glucagon,"[1]; WT mouse islets, G16, 10 uM",6.349 pg/ml/ islet and 9.927 pg/ml/ islet and 6.387 pg/ml/ islet and 12.9481 pg/ml/ islet and 7.932 pg/ml/ islet and 7.688 pg/ml/ islet and 3.944 pg/ml/ islet and 9.1471 pg/ml/ islet and 7.361 pg/ml/ islet
same,"Islet Glucagon, mean","[1]; WT mouse islets, G16, 10 uM",7.965 pg/ml/ islet
same,"Islet insulin, mean","[1]; WT mouse islets, G16, 10 uM",4.275
same,glucagon secretion from islets,[1]; WT mouse islets,not
"Cc1cc(OCCCS(C)(=O)=O)cc(C)c1-c1cccc(COc2ccc3c(c2)OC[C@H]3CC(=O)O)c1 [TAK-875, reference compound]",blood glucose vs vehicle,"GK rats; GK rat, single PO dose at maximal efficacious dose, 24 hr time course",reduced from the 1 hr time point until the 8 hr time point
same,Plasma Glucagon,"GK rats; GK rat, single PO dose at maximal efficacious dose, up to 24 hr",not significant
